Measurements published in PMC7565988, “Insight into the Anticancer Activity of Copper(II) 5-Methylenetrimethylammonium-Thiosemicarbazonates and Their Interaction with Organic Cation Transporters” (Biomolecules, 2020).

Key:
Test in all cases: [3H]-MPP+ uptake inhibition assay in HEK-293 cells
Assay type in all cases: cell-based
[1] = molecular target: T1, OCT1 (Homo sapiens, UniProt O15245); details: 10 min uptake; for IC50: HEK cells stably expressing human OCT1
T1 construct: expressed in transfected cells
T1 sequence (O15245 1-554): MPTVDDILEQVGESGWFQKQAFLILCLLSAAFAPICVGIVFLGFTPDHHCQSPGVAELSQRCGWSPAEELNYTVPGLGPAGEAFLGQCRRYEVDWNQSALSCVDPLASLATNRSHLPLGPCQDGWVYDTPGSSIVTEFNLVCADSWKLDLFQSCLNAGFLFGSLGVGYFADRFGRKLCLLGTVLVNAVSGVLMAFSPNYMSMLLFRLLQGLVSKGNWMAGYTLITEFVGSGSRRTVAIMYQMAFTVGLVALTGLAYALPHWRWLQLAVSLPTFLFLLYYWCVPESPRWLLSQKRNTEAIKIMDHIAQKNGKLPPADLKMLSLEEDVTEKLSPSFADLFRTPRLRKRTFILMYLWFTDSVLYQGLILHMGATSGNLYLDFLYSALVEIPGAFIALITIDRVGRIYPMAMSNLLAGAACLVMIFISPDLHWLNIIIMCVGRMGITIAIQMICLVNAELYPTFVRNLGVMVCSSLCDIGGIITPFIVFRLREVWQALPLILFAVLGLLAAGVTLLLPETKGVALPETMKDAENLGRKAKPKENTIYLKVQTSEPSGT
Procedure: (§1) HEK–293 cells (LGC Standards GmbH, Germany) stably expressing human isoforms of wild type organic cation transporters 1–3 (OCT1–3) were cultured in Dulbecco’s modified Eagle’s medium (DMEM; Sigma-Aldrich) with high glucose (4.5 g/L) and L-glutamine (584 mg/L) supplemented with 10% foetal calf serum (FCS; Biowest) and penicillin/streptomycin mixture (50 mg/L; Sigma/Aldrich) at 37 °C in a humidified atmosphere (5% CO2). The selection reagent was Geneticin (150 U/mL; Merck, Germany) for all three cell lines. Cells were seeded onto poly-D-lysine (0.05 mg/mL; Sigma-Aldrich) precoated clear bottom Corning 96 well white assay plate (Sigma-Aldrich) at the density of 4 × 10^4 cells per well 24 h prior to the experiment.
(§2) The assay was performed as previously described with slight modification. Briefly, on the day of the experiment, cells were washed once with 100 µL Krebs-HEPES buffer (KHB; 10 mM HEPES, 120 mM NaCl, 3 mM KCl, 2 mM CaCl2·2H2O, 2 mM MgCl2·6H2O, 5 mM D-(+)- glucose, pH 7.3) at room temperature. Cells were preincubated for 10 min in 50 µL of RT KHB containing increasing concentrations of tested compounds previously dissolved in dimethyl sulfoxide (DMSO; final concentration in working solution was 1%). After that, the preincubation solution was quickly removed and replaced with 50 µL of uptake solution containing the aforementioned components with the addition of 50 nM [^3H]-1-methyl-4-phenylpyridinium ([^3H]-MPP^+; 60 Ci/mmol; American Radiolabeled Chemicals, Saint Louis, MO, USA). After the 10 min uptake at RT, the transport was stopped by washing cells with 100 µL of ice-cold KHB and adding 200 µL of Ultima GoldTM XR scintillation cocktail (PerkinElmer, MA, USA). The plates were shaken, placed into Wallac 1450 MicroBeta TriLux Liquid Scintillation Counter and Lumi (GMI, Ramsey, MN, USA) and the released radioactivity was measured for 3 min. Nonspecific [^3H]-MPP^+ uptake was measured in the presence of 100 µM decynium-22 and the data were plotted as a percentage of uptake in the presence of 1% DMSO from which the value of the nonspecific uptake was subtracted. Nonlinear regression analysis (GraphPad Prism version 5.0, GraphPad Software, San Diego, CA, USA) was used for calculation of IC50 values.

[2] = molecular target: T2, OCT2 (Homo sapiens, UniProt O15244); details: for IC50: HEK cells stably expressing human OCT2, 10 min uptake; for interaction with OCT2: [3H]-MPP+ uptake inhibition in HEK OCT2 cells
T2 construct: expressed in transfected cells
T2 sequence (O15244 1-555): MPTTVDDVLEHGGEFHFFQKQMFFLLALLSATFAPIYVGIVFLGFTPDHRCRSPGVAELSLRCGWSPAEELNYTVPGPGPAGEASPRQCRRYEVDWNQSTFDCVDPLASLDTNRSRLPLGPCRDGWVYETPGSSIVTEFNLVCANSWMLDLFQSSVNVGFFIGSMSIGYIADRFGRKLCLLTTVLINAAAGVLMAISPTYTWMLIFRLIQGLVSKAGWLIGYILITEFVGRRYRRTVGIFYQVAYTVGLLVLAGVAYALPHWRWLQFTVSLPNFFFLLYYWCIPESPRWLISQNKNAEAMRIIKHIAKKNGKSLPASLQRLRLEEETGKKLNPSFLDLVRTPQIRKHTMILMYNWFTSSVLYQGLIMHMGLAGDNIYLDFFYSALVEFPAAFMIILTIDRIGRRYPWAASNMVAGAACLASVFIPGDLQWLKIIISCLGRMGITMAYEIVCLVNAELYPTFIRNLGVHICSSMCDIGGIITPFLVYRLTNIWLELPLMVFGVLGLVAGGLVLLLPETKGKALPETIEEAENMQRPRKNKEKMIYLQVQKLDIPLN
Procedure: as §1, §2

[3] = molecular target: T3, OCT3 (Homo sapiens, UniProt O75751); details: HEK cells stably expressing human OCT3; 10 min uptake
T3 construct: expressed in transfected cells
T3 sequence (O75751 1-556): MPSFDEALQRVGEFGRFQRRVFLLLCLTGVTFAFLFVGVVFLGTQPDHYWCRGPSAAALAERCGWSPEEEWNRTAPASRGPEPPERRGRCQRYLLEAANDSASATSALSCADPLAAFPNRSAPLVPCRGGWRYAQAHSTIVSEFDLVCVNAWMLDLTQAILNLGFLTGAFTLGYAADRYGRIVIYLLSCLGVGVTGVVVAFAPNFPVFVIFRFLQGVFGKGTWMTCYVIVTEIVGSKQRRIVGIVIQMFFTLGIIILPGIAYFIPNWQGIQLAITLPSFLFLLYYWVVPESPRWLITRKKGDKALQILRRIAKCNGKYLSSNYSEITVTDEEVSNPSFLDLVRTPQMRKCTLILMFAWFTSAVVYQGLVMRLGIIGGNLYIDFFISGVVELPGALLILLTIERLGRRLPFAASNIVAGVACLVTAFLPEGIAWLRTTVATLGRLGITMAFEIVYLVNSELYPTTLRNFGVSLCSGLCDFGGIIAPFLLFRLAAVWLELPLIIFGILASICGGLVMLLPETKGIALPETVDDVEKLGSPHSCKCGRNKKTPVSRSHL
Procedure: as §1, §2

Structure (SMILES)	IC50 [1] [µM]	IC50 [2] [µM]	interaction with OCT2 [2]	IC50 [3] [µM]	IC50 at 10 min ([1]; HEK-293 cells stably expressing human OCT1, pH 7.3, probe [3H]-MPP+ (50 nM)) [µM]
CNC(=S)N/N=C/c1cc(C[N+](C)(C)C)ccc1O [[H2L^Me]Cl]	391 ± 40	> 4000	no interaction	103 ± 23.4	–
C[N+](C)(C)Cc1ccc(O)c(/C=N/NC(=S)Nc2ccccc2)c1 [[H2L^Ph]Cl]	119 ± 50	371 ± 123	–	27.8 ± 5	–
C[N+](C)(C)Cc1ccc(O)c(/C=N/NC(N)=S)c1 [[H2L^H]Cl]	740 ± 195	> 4000	no interaction	105 ± 32.8	740
CCNC(=S)N/N=C/c1cc(C[N+](C)(C)C)ccc1O [[H2L^Et]Cl]	169 ± 26.2	236 ± 97.1	–	63.1 ± 8.9	–
